Measurements reported in patent US20140326192A1, “ANTIMICROBIAL ANIMAL PRODUCT” (COVENTRY UNIVERSITY, priority 2011, published 2014).

Assay: Stability of the antimicrobial agent to melting during processing (activity retained)
Assay type: physicochemical
Procedure: Bundles of the dosed and non-dosed fibres were melted at 170° C. and compressed, to manufacture a number of continuous, smooth, 2 mm thick plastic sheets. The sheets were cut to create 50×50 mm area test pieces, as required by the standard test for Anti Microbial Activity ISO 22196:2007. This test is an appropriate method for assessing the surface antimicrobial activity of plastic materials when micro-organisms are placed onto the test piece.
3-(trihydroxysilyl)propyldimethyl octodecyl ammonium chloride was combined with polypropylene stock at a dosing rate of around 1% by total weight and the mixture melted, before extruding it into fibres. Control fibres were produced by a method identical other than omission of the 3-(trihydroxysilyl)propyldimethyl octodecyl ammonium chloride. The fibres were 0.45 mm with an X shape cross section and 100 mm long.

SMILES: CCCCCCCCCCCCCCCCCC[N+](C)(C)CCC[Si](O)(O)O.[Cl-] [antimicrobial agent, 3-(trihydroxysilyl)propyldimethyl octodecyl ammonium chloride]
- stability to re-melting of the fibres when making the test pieces (fibres melted at 170° C. and compressed): sufficiently stable
- stability after melting when making the fibres (melting to 200° C.): sufficiently stable
